Data taken from US8987312B2, “Alpha-keto heterocycles as FAAH inhibitors” (The Scripps Research Institute, priority 2008, dated 2015).
Like-named read-outs stand apart in the source and are kept apart here.

Experiments:
Assay type in all cases: biochemical
[1] = target: T1, triacylglycerol hydrolase (TGH) (Mus musculus, UniProt Q8VCT4); assay: Activity based protein profiling (proteome-wide selectivity screening, FP-Rh), TGH; settings: Table 4; for TGH selectivity (value in parentheses): ratio TGH IC50 / FAAH IC50 (fold selectivity for FAAH); for IC50: activity based protein profiling
T1 construct: with FP-Rh in brain and heart membrane proteome; from tissue; host or cells: brain and heart membrane proteome
T1 sequence (Q8VCT4 19-565): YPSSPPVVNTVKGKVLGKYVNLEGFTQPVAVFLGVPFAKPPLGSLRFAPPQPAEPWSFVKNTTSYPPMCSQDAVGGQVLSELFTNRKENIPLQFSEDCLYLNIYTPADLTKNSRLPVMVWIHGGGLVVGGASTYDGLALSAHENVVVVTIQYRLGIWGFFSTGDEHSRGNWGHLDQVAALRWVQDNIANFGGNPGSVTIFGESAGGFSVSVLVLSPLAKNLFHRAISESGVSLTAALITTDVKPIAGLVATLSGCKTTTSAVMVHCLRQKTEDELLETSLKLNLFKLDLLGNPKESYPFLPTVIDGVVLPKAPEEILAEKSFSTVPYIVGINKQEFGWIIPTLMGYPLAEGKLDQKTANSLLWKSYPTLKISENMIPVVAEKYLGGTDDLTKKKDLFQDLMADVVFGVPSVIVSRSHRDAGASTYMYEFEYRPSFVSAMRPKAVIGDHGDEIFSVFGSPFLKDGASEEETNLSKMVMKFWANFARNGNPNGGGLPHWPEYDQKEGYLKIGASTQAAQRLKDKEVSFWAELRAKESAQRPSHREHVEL
Excerpt: (§1) Enzyme targets such as FAAH, KIAA1363, and TGH are labeled at the left margin.

[2] = target: T2, purified recombinant rat FAAH (Rattus norvegicus, UniProt P97612); assay: FAAH inhibition enzyme assay (14C-oleamide hydrolysis, Dixon plot), rat enzyme
T2 construct: The truncated rat FAAH (rFAAH) was expressed in E. coli and purified as described; made in house; host or cells: Escherichia coli
T2 sequence (P97612 30-579 limits assumed): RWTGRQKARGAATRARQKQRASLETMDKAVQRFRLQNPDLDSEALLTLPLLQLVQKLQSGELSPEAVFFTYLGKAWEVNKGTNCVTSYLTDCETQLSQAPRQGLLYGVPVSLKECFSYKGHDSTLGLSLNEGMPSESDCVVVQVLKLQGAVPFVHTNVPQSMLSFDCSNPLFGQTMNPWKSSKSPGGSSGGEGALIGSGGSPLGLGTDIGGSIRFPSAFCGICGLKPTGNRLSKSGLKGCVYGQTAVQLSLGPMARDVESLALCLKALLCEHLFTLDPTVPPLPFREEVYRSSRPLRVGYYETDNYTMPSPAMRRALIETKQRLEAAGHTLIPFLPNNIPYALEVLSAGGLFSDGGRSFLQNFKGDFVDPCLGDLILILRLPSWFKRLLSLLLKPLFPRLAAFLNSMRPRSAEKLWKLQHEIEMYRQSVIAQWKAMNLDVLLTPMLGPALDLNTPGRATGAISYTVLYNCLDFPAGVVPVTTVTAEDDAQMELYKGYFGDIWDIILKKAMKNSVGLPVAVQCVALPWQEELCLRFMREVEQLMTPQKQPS
Excerpt: The purified recombinant rFAAH was used in the inhibition assays unless otherwise indicated.
The ^14C-labeled oleamide (substrate) and oleic acid (product) were extracted with EtOAc and analyzed by TLC.

KIAA1363 = target: T3, KIAA1363 (Mus musculus, UniProt Q8BLF1); assay: Activity based protein profiling (proteome-wide selectivity screening, FP-Rh), KIAA1363; settings: Table 4; for IC50: activity based protein profiling
T3 construct: with FP-Rh in brain and heart membrane proteome; from tissue; host or cells: brain and heart membrane proteome
T3 sequence (Q8BLF1 1-408): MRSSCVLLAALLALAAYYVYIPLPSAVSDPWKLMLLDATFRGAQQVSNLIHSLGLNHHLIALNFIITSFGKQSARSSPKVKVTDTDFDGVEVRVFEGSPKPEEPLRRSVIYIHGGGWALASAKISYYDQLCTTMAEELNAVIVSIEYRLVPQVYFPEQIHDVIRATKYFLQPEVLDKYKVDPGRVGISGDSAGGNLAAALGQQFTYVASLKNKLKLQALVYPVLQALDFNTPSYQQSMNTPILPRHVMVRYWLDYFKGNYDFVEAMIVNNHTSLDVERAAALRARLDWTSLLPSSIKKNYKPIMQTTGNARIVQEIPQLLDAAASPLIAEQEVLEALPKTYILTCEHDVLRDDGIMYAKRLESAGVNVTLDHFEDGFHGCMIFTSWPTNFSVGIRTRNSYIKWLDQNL
Excerpt: as §1

[3] = Table 2, rat FAAH, pH 9 assay conditions, read-out: Ki
[4] = rat FAAH, pH 9 assay conditions

## O=C(CCCCCCc1ccccc1)c1nnc(-c2ccco2)o1 [8c]
[1]
  TGH selectivity (value in parentheses): 80
[2]; [3]
  Ki: 0.56 nM

## O=C(CCCCCCc1ccccc1)c1nnc(-c2cccs2)o1 [8d, 7-Phenyl-1-(5-(thien-2-yl)-1,3,4-oxadiazol-2-yl)-heptan-1-one]
[2]; [3]
  Ki: 0.8 nM

## O=C(CCCCCCc1ccccc1)c1nnc(-c2ccccc2)o1 [8e]
KIAA1363; ratio KIAA1363 IC50 / FAAH IC50 (fold selectivity for FAAH)
  KIAA1363 selectivity (value in parentheses): > 4000
[1]
  TGH selectivity (value in parentheses): 10
[2]; [3]
  Ki: 2.2 nM
[2]; Table 4, read-out: FAAH Ki
  Ki: 2.2 nM

## COC(=O)c1nnc(C(=O)CCCCCCc2ccccc2)o1 [8h, Methyl 5-(7-Phenylheptanoyl)-1,3,4-oxadiazole-2-carboxylate]
KIAA1363
  IC50: > 100000 nM
[1]
  IC50: 2000 nM

## O=C(CCCCCCc1ccccc1)c1nc(-c2ccco2)no1 [9c, 1-(3-(Furan-2-yl)-1,2,4-oxadiazol-5-yl)-7-phenylheptan-1-one]
[2]; [3]
  Ki: 1 nM

## O=C(CCCCCCc1ccccc1)c1nc(-c2cccs2)no1 [9d, 7-Phenyl-1-(3-(thiophen-2-yl)-1,2,4-oxadiazol-5-yl)-heptan-1-one]
[2]; [3]
  Ki: 1.6 nM

## O=C(O)c1cccc(-c2noc(C(=O)CCCCCCc3ccccc3)n2)n1 [9g, 6-(5-(7-Phenylheptanoyl)-1,2,4-oxadiazol-3-yl)-picolinic Acid]
KIAA1363
  IC50: > 100000 nM
[1]
  IC50: 40000 nM

## O=C(CCCCCCc1ccccc1)c1noc(-c2ccco2)n1 [10c, 1-(5-(Furan-2-yl)-1,2,4-oxadiazol-3-yl)-7-phenylheptan-1-one]
[2]; [3]
  Ki: 8.5 nM

## O=C(CCCCCCc1ccccc1)c1noc(-c2cccs2)n1 [10d, 7-Phenyl-1-(5-(thiophen-2-yl)-1,2,4-oxadiazol-3-yl)-heptan-1-one]
[2]; [3]
  Ki: 44 nM

## COC(=O)c1cccc(-c2nc(C(=O)CCCCCCc3ccccc3)no2)n1 [10f, Methyl 6-(3-(7-Phenylheptanoyl)-1,2,4-oxadiazol-5-yl)-picolinate]
KIAA1363
  IC50: > 100000 nM

## O=C(CCCCCCc1ccccc1)c1ncc(-c2ccccn2)s1 [11b, 7-Phenyl-1-(5-(pyridin-2-yl)-thiazol-2-yl)-heptan-1-one]
KIAA1363
  IC50: > 100000 nM
[1]
  IC50: 8000 nM

## O=C(CCCCCCc1ccccc1)c1ncc(-c2ccco2)s1 [11c, 1-(5-(Furan-2-yl)-thiazol-2-yl)-7-phenylheptan-1-one]
[2]; [3]
  Ki: 1500 nM

## O=C(CCCCCCc1ccccc1)c1ncc(-c2cccs2)s1 [11d, 7-Phenyl-1-(5-(thiophen-2-yl)-thiazol-2-yl)-heptan-1-one]
[2]; [3]
  Ki: 2000 nM

## O=C(O)c1cccc(-c2cnc(C(=O)CCCCCCc3ccccc3)s2)n1 [11g, 6-(2-(7-Phenylheptanoyl)thiazol-5-yl)-picolinic Acid]
KIAA1363
  IC50: > 100000 nM
[1]
  IC50: 30000 nM

## O=C(CCCCCCc1ccccc1)c1nnc(-c2ccco2)s1 [12c, 1-(5-(Furan-2-yl)-1,3,4-thiadiazol-2-yl)-7-phenylheptan-1-one]
[2]; [3]
  Ki: 7.4 nM

## O=C(CCCCCCc1ccccc1)c1nnc(-c2cccs2)s1 [12d, 7-Phenyl-1-(5-(thiophen-2-yl)-1,3,4-thiadiazol-2-yl)-heptan-1-one]
[2]; [3]
  Ki: 27 nM

## COC(=O)c1cccc(-c2nnc(C(=O)CCCCCCc3ccccc3)s2)n1 [12f, Methyl 6-(5-(7-Phenylheptanoyl)-1,3,4-thiadiazol-2-yl)-picolinate]
KIAA1363
  IC50: > 100000 nM

## O=C(O)c1cccc(-c2nnc(C(=O)CCCCCCc3ccccc3)s2)n1 [12g, 6-(5-(7-Phenylheptanoyl)-1,3,4-thiadiazol-2-yl)-picolinic Acid]
KIAA1363
  IC50: > 100000 nM
[1]
  IC50: > 100000 nM

## COC(=O)c1nnc(C(=O)CCCCCCc2ccccc2)s1 [12h, Methyl 5-(7-Phenylheptanoyl)-1,3,4-thiadiazole-2-carboxylate]
KIAA1363
  IC50: > 100000 nM
[1]
  IC50: 11000 nM

## O=C(CCCCCCc1ccccc1)c1ccc(-c2ccccn2)nn1 [13b, 7-Phenyl-1-(6-(pyridin-2-yl)-pyridazin-3-yl)-heptan-1-one]
KIAA1363
  IC50: > 100000 nM
[1]
  IC50: > 100000 nM

## O=C(CCCCCCc1ccccc1)c1ccc(-c2ccco2)nn1 [13c, 1-(6-(Furan-2-yl)-pyridazin-3-yl)-7-phenylheptan-1-one]
[2]; [3]
  Ki: 40 nM

## O=C(CCCCCCc1ccccc1)c1ccc(-c2cccs2)nn1 [13d, 7-Phenyl-1-(6-(thiophen-2-yl)-pyridazin-3-yl)-heptan-1-one]
[2]; [3]
  Ki: 46 nM

## O=C(O)c1cccc(-c2ccc(C(=O)CCCCCCc3ccccc3)nn2)n1 [13g, 6-(6-(7-Phenylheptanoyl)-pyridazin-3-yl)-picolinic Acid]
KIAA1363
  IC50: > 100000 nM
[1]
  IC50: > 100000 nM

## O=C(CCCCCCc1ccccc1)c1nnc[nH]1 [14a, 7-Phenyl-1-(4H-1,2,4-triazol-3-yl)-heptan-1-one]
[2]; [3]
  Ki: > 1000 nM

## O=C(CCCCCCc1ccccc1)c1nnc(-c2ccccn2)[nH]1 [14b, 7-Phenyl-1-(5-(pyridin-2-yl)-4H-1,2,4-triazol-3-yl)-heptan-1-one]
[2]; [3]
  Ki: > 100000 nM

## O=C(CCCCCCc1ccccc1)c1nnc(-c2ccco2)[nH]1 [14c, 1-(5-(Furan-2-yl)-4H-1,2,4-triazol-3-yl)-7-phenylheptan-1-one]
[2]; [3]
  Ki: > 1000 nM

## O=C(CCCCCCc1ccccc1)c1nnc(-c2cccs2)[nH]1 [14d, 7-Phenyl-1-(5-(thiophen-2-yl)-4H-1,2,4-triazol-3-yl)-heptan-1-one]
[2]; [3]
  Ki: > 1000 nM

## COC(=O)c1nnc(C(=O)CCCCCCc2ccccc2)[nH]1 [14h, Methyl 5-(7-Phenylheptanoyl)-4H-1,2,4-triazole-3-carboxylate]
[2]; [4]
  FAAH inhibition (in words): inactive

## O=C(CCCCCCc1ccccc1)c1nnn(-c2ccco2)n1 [15c, 1-(2-(Furan-2-yl)-2H-tetrazol-5-yl)-7-phenylheptan-1-one]
[2]; [3]
  Ki: 5 nM

## O=C(CCCCCCc1ccccc1)c1nnn(-c2cccs2)n1 [15d, 7-Phenyl-1-(2-(thiophen-2-yl)-2H-tetrazol-5-yl)-heptan-1-one]
[2]; [3]
  Ki: 8.5 nM

## O=C(CCCCCCc1ccccc1)c1nnn(-c2ccccc2)n1 [15e, 7-Phenyl-1-(2-phenyl-2H-tetrazol-5-yl)-heptan-1-one]
[2]; [3]
  Ki: 16 nM

## Cn1nnc(C(=O)CCCCCCc2ccccc2)n1 [19a, 1-(2-Methyl-2H-tetrazol-5-yl)-7-phenylheptan-1-one]
[2]; [4]
  FAAH inhibition (in words): displayed FAAH inhibition at levels consistent with related compounds

## Cn1nnnc1C(=O)CCCCCCc1ccccc1 [19b, 1-(1-Methyl-1H-tetrazol-5-yl)-7-phenylheptan-1-one]
[2]; [4]
  FAAH inhibition (in words): displayed FAAH inhibition at levels consistent with related compounds

## O=C(CCCCCCc1ccccc1)c1ncc(-c2ccccn2)o1 [compound 2, reference compound]
[1]
  IC50: 600 nM

## O=C(CCCCCCc1ccccc1)c1cnc(-c2ccccn2)o1 [compound 6, 7-Phenyl-1-(2-(pyridin-2-yl)oxazol-5-yl)-heptan-1-one]
[2]; with respect to oxazole 2
  loss of FAAH inhibition: > 4000 fold
